# Several values for one entry are separate records, joined by “and”; a condition that tells them apart may be missing. Equal values may be shown once.
# Key:
# [1] = system: 3 dpf zebrafish; experiment: Exclusion of motion artefact: myocardial contractility under excitation-contraction uncouplers; type: in vivo; settings: for Effect on contraction of cardiomyocytes / myocardial contractility: drug added to embryo holding chamber
# Procedure: Firstly, recordings were performed with and without cromakalim and secondly, comparing invasive (intracardial) and non-invasive surface recordings. Cromakalim was added to the embryo holding chamber and ECG signals were recorded before and after drug exposure (QTc values shown in Table S1). […] Therefore, as an independent approach we compared ECG signals from invasive and non-invasive electrode positioning. There was minimal difference between recordings taken invasively and non-invasively (n = 5; Fig. 2B, Table S2).
# [2] = system: 3 dpf zebrafish larvae; experiment: ECG recording in zebrafish larvae before and after drug treatment; settings: for Mean interval duration QT / Mean interval duration QTc / Mean interval duration RR / Mean QTc interval duration, After: 3 dpf; for Mean interval duration QT / Mean interval duration QTc / Mean interval duration RR: n = 10; for Effect on heart rate (ƒH): immobilising agents, MESAB at very high concentrations, tubocurarine at any tested concentration; for Effect on QTc interval (in words): 3 dpf zebrafish larvae, over the tested concentrations; for AV block: at particular concentrations and exposure times
# Procedure: For all experiments, except the anaesthetic and tubocurarine experiments, fish larvae were anaesthetised in ethyl-3 aminobenzoate methanesulfonate (0.3 mg/ml; Sigma) for 5–10 mins before transfer into 3 ml of embryo medium in the plate used for subsequent measurements. Once anaesthetised, one embryo was then transferred to the ECG recording plate (mini Petri dish with an unscented paraffin wax surface, containing 3 ml of fresh E3 embryo medium without MESAB). The embryo was positioned ventrally within a groove in the wax, and the tip (2 µm diameter) of a filled pre-pulled borosilicate glass micropipette (P84, World Precision Instruments) was positioned on the skin surface between the ventricle and atrium (no penetration) using micromanipulators (Narishige) and Inchworm step motors (Burleigh), viewed under a Nikon microscope (SMZ600). The micropipettes were filled with MicroFil (P85, World Precision Instruments) in 3 M potassium acetate solution (Sigma) and coloured with methylene blue (Sigma) to easier visualise the tips during recordings. A chloridised silver wire which carried the electrical signal to the amplifier was inserted into the micropipettes and a second reference electrode placed in the surrounding medium during recordings. The differential amplifier (NPI electronics) used for recording was operated in DC mode with the high pass filter set at 0.1 Hz. The raw ECG signals were digitised (PowerLab; ADI Instruments) and viewed using LabChart 7 (ADI Instruments).
# Non-invasive recordings were taken by applying slight pressure over the surface of the heart using the tip of a glass capillary. Invasive recordings were taken by increasing the speed and also the distance moved by the step motor to puncture the skin over the heart. All of the recording equipment was housed on an air table within a grounded Faraday cage to minimise background noise. Experiments were performed at room temperature (21°C) except when otherwise stated. Temperature was controlled using a sensor placed in the recording plate and a homemade heating element (Cryocon 24 temperature controller). For optimisation experiments, recordings were taken for 5 mins. For the temperature experiments, embryos were initially acclimatised to each temperature for 30 mins before taking a recording of 5 mins. For drug treatments, ECG recordings were taken continuously after drug addition. A 5 mins segment before drug addition and a 15 minute segment where QT prolongation was first apparent by visual observation were selected for analysis.
# All drug stocks were made using either DMSO or distilled water depending on solubility, then diluted using E3 embryo medium to make up the final concentrations for recording purposes with DMSO levels at 1%. ECG recordings were taken for 5 mins in 3 ml of embryo medium before addition of drug directly to the recording plate (1 ml) to produce the desired concentration by undergoing a 1 in 4 dilution.
# Analysis of the digitised ECG signal was carried out using LabChart and the mean intervals for the ECG parameters R-R, QRS, QT and QTc were calculated. For drug treatments the percentage change in the corrected QT interval (QTc) before and after drug administration was compared. One way ANOVA analysis was then performed to determine statistical significance between differences observed.
# Z factor scores were also calculated to determine the robustness of the ECG system as a screening tool, using the mean QTc percentage change before and after drug treatment for each individual fish. The values before drug treatment were standardised. The Z factor score was calculated using the following equation: Z = 1– [3×(σp+σn)/(µp - µn)],
# where µp and σp represent mean and SD after treatment, while µn and σn represent mean and SD before treatment. Z factor scores fall into the following range: 1 = ideal, 0.5–1 = excellent, 0–0.5 = marginal, <0 = poor.
# [3] = design: method as in earlier work; settings: zebrafish larvae ref 56; cited from earlier work
# [4] = MESAB 0.1 mg/ml, prior anaesthesia 5–10 minutes
# [5] = MESAB 0.3 mg/ml, prior anaesthesia 5–10 minutes
# [6] = MESAB 0.5 mg/ml, prior anaesthesia 5–10 minutes
# [7] = MESAB 1 mg/ml, prior anaesthesia 5–10 minutes
# [8] = tubocurarine 100 μM, continuous exposure
# [9] = tubocurarine 400 μM, continuous exposure
molecule,measurement,setting,value
"CC(=O)C(C)=NO [BDM, 2,3-butanedione-monoxime]",Adverse effects on ECG and embryo survival,[1],adverse effects on the ECG and embryo survival
same,Effect on contraction of cardiomyocytes / myocardial contractility,[1],completely remove myocardial contractility
"CCOC(=O)c1cccc(N)c1.CS(=O)(=O)O [MESAB, ethyl-3 aminobenzoate methanesulfonate]",Mean interval duration QT,[2]; [4],0.3428 s
same,Mean interval duration QTc,[2]; [4],0.4944 s
same,Mean interval duration RR,[2]; [4],0.4798 s
same,Mean interval duration QT,[2]; [5],0.3614 s
same,Mean interval duration QTc,[2]; [5],0.5049 s
same,Mean interval duration RR,[2]; [5],0.5123 s
same,Mean interval duration QT,[2]; [6],0.3515 s
same,Mean interval duration QTc,[2]; [6],0.5012 s
same,Mean interval duration RR,[2]; [6],0.4917 s
same,Mean interval duration QT,[2]; [7],0.3656 s
same,Mean interval duration QTc,[2]; [7],0.5133 s
same,Mean interval duration RR,[2]; [7],0.5517 s
same,Effect on R-R interval,"[2]; MESAB at high concentrations (1 mg/ml), P<0.05",increase of the R-R interval
same,Effect on heart rate (ƒH),[2],induced bradycardia
Cc1ccc2c(c1)C(=O)C1(O)CCN(c3ccccc3)C1=N2 (stereo not drawn) [blebbistatin],Adverse effects on ECG and embryo survival,[1],adverse effects on the ECG and embryo survival
same,Effect on contraction of cardiomyocytes / myocardial contractility,[1],completely remove myocardial contractility
CC1(C)Oc2ccc(C#N)cc2C(N2CCCC2=O)C1O (stereo not drawn) [cromakalim],Effect on contraction of cardiomyocytes / myocardial contractility,[1],did not reduce contraction of cardiomyocytes
same,Effect on QTc interval (in words),[2],no perturbation to the QTc interval
same,"Mean QTc interval duration, After","[2]; cromakalim 10 µM, n = 5, before drug 0.458 s",0.461 s
same,"Mean QTc interval duration, After","[2]; cromakalim 25 µM, n = 5, before drug 0.459 s",0.460 s
same,"Mean QTc interval duration, After","[2]; cromakalim 50 µM, n = 5, before drug 0.469 s",0.464 s
same,"Mean QTc interval duration, After","[2]; cromakalim 100 µM, n = 5, before drug 0.453 s",0.449 s
same,"Mean QTc interval duration, After","[2]; cromakalim 200 µM, n = 5, before drug 0.476 s",0.476 s
same,"Mean QTc interval duration, After","[2]; cromakalim 300 µM, n = 5, before drug 0.475 s",0.472 s
same,"Mean QTc interval duration, After","[2]; cromakalim 400 µM, n = 5, before drug 0.468 s",0.474 s
O=C(CCCN1CCC(O)(c2ccc(Cl)cc2)CC1)c1ccc(F)cc1 [haloperidol],Effect on QTc interval (in words),[2],"apparent QT prolongation, which was found to be similar at various concentrations"
same,AV block,[2]; 3 dpf larvae,induced an atrioventricular (AV) block and 2∶1 AV block
same,"Mean QTc interval duration, After","[2]; haloperidol 50 µM, n = 8, before drug 0.499 s",0.586 s
same,"Mean QTc interval duration, After","[2]; haloperidol 100 µM, n = 8, before drug 0.511 s",0.603 s
same,"Mean QTc interval duration, After","[2]; haloperidol 200 µM, n = 8, before drug 0.504 s",0.593 s
same,"Mean QTc interval duration, After","[2]; haloperidol 300 µM, n = 8, before drug 0.480 s",0.576 s
O=c1[nH]c2ccccc2n1C1CCN(CCCC(c2ccc(F)cc2)c2ccc(F)cc2)CC1 [pimozide],Effect on QTc interval (in words),[2],statistically significant increase in the corrected QT interval
same,AV block,[2]; 3 dpf larvae,induced an atrioventricular (AV) block
same,"Mean QTc interval duration, After","[2]; pimozide 50 µM, n = 8, before drug 0.491 s",0.629 s
same,"Mean QTc interval duration, After","[2]; pimozide 100 µM, n = 8, before drug 0.470 s",0.610 s
CC(C)(C)c1ccc(C(O)CCCN2CCC(C(O)(c3ccccc3)c3ccccc3)CC2)cc1 (stereo not drawn) [terfenadine],Metabolism in zebrafish larvae,[3],almost completely metabolised to azacyclone and terfenadine alcohol
same,"Arrhythmia, ECG screenshot","[2]; 50 µM terfenadine, after 40 minutes of treatment, 3 dpf larva",arrhythmic phenotype with the presence of ectopic beats
same,AV block,[2]; 3 dpf larvae,2∶1 AV block
same,AV block,"[2]; 3 dpf larvae, listed as Terfenadine",induced an atrioventricular (AV) block
same,Arrhythmia development,"[2]; time and concentration-dependent, 3 dpf larvae",development of an arrhythmia
COc1cc2c3cc1Oc1cc(ccc1O)C[C@@H]1c4c(cc(OC)c(O)c4Oc4ccc(cc4)C[C@@H]3N(C)CC2)CC[N+]1(C)C [tubocurarine],Effect on heart rate (ƒH),[2],did not affect ƒH at any of the tested concentrations
same,Mean interval duration QT,[2]; [8],0.3263 s
same,Mean interval duration QTc,[2]; [8],0.4733 s
same,Mean interval duration RR,[2]; [8],0.4755 s
same,Mean interval duration QT,[2]; [9],0.3306 s
same,Mean interval duration QTc,[2]; [9],0.4755 s
same,Mean interval duration RR,[2]; [9],0.4863 s
COc1ccc(CCN(C)CCCC(C#N)(c2ccc(OC)c(OC)c2)C(C)C)cc1OC (stereo not drawn) [verapamil],Effect on QTc interval (in words),[2],increased the QTc interval
same,"Mean QTc interval duration, After","[2]; verapamil 10 µM, n = 8, before drug 0.482 s",0.486 s
same,"Mean QTc interval duration, After","[2]; verapamil 25 µM, n = 8, before drug 0.478 s",0.484 s
same,"Mean QTc interval duration, After","[2]; verapamil 50 µM, n = 8, before drug 0.471 s",0.529 s
same,"Mean QTc interval duration, After","[2]; verapamil 100 µM, n = 8, before drug 0.473 s",0.578 s
same,"Mean QTc interval duration, After","[2]; verapamil 200 µM, n = 8, before drug 0.484 s",0.591 s
same,"Mean QTc interval duration, After","[2]; verapamil 300 µM, n = 8, before drug 0.477 s",0.622 s
same,"Mean QTc interval duration, After","[2]; verapamil 400 µM, n = 8, before drug 0.481 s",0.609 s
same,"Mean QTc interval duration, After","[2]; verapamil 1000 µM, n = 8, before drug 0.466 s",0.616 s
penicillin,Effect on QTc interval (in words),[2],no effect on the QTc interval
same,"Mean QTc interval duration, After","[2]; penicillin 0.1 µM, negative control, n = 8, before drug 0.497 s",0.495 s
same,"Mean QTc interval duration, After","[2]; penicillin 0.3 µM, negative control, n = 8, before drug 0.487 s",0.492 s
same,"Mean QTc interval duration, After","[2]; penicillin 10 µM, negative control, n = 8, before drug 0.490 s",0.500 s
same,"Mean QTc interval duration, After","[2]; penicillin 30 µM, negative control, n = 8, before drug 0.494 s",0.503 s
same,"Mean QTc interval duration, After","[2]; penicillin 50 µM, negative control, n = 8, before drug 0.489 s",0.488 s
same,"Mean QTc interval duration, After","[2]; penicillin 100 µM, negative control, n = 8, before drug 0.506 s",0.508 s
same,"Mean QTc interval duration, After","[2]; penicillin 200 µM, negative control, n = 8, before drug 0.478 s",0.483 s
same,"Mean QTc interval duration, After","[2]; penicillin 300 µM, negative control, n = 8, before drug 0.457 s",0.454 s
same,"Mean QTc interval duration, After","[2]; penicillin 400 µM, negative control, n = 8, before drug 0.514 s",0.507 s
same,"Mean QTc interval duration, After","[2]; penicillin 1000 µM, negative control, n = 8, before drug 0.511 s",0.501 s

# — publication PMC3620317, “Optimisation of Embryonic and Larval ECG Measurement in Zebrafish for Quantifying the Effect of QT Prolonging Drugs” (PLoS ONE, 2013)
